According to patent publication US20260043061A1, “ENZYMATICALLY MEDIATED REACTIVE CRYSTALLIZATION OF STEVIOL GLYCOSIDES” (Arzeda Corp., priority 2022, published 2026):

Test: Solubility of select steviol glycosides at room temperature
Type: physicochemical
Conditions: in water, some species may not be completely pure
Text: Pure steviol glycosides are sparingly soluble in water. Solubility measurements may reflect the true thermodynamic solubility or a short-term kinetic solubility. The kinetic solubility value occurs when an isomeric form has been prepared that is not thermodynamically stable at long time scales yet has higher solubility at short times scales. A few steviol glycoside species have a free carboxylic acid group. These species tend to have higher solubility. Nevertheless, steviol glycosides are generally poorly soluble in water, as shown in Table 3 (certain measurements are for species that may not be completely pure).

| Solubility | Molecule |
| --- | --- |
| 0.05% wt % | C=C1C[C@@]23CC[C@H]4[C@@](C)(CCC[C@@]4(C)C(=O)O[C@@H]4O[C@H](CO)[C@@H](O)[C@H](O[C@@H]5O[C@H](CO)[C@@H](O)[C@H](O)[C@H]5O)[C@H]4O[C@@H]4O[C@H](CO)[C@@H](O)[C@H](O)[C@H]4O)[C@@H]2CC[C@]1(O[C@@H]1O[C@H](CO)[C@@H](O)[C@H](O[C@@H]2O[C@H](CO)[C@@H](O)[C@H](O)[C@H]2O)[C@H]1O[C@@H]1O[C@H](CO)[C@@H](O)[C@H](O)[C@H]1O)C3 [Reb M, rebaudioside M] |
| 0.10% wt % | C=C1C[C@@]23CC[C@H]4[C@@](C)(CCC[C@@]4(C)C(=O)O[C@@H]4O[C@H](CO)[C@@H](O)[C@H](O)[C@H]4O)[C@@H]2CC[C@]1(O[C@@H]1O[C@H](CO)[C@@H](O)[C@H](O[C@@H]2O[C@H](CO)[C@@H](O)[C@H](O)[C@H]2O)[C@H]1O[C@@H]1O[C@H](CO)[C@@H](O)[C@H](O)[C@H]1O)C3 [Reb A hydrate, rebaudioside A] |
| 0.80% wt % | C=C1C[C@@]23CC[C@H]4[C@@](C)(CCC[C@@]4(C)C(=O)O[C@@H]4O[C@H](CO)[C@@H](O)[C@H](O)[C@H]4O)[C@@H]2CC[C@]1(O[C@@H]1O[C@H](CO)[C@@H](O)[C@H](O[C@@H]2O[C@H](CO)[C@@H](O)[C@H](O)[C@H]2O)[C@H]1O[C@@H]1O[C@H](CO)[C@@H](O)[C@H](O)[C@H]1O)C3 [Reb A 97%, rebaudioside A] |
| 0.20% wt % | rebaudioside C [Reb C] |
| 0.10% wt % | C=C1C[C@@]23CC[C@H]4[C@@](C)(CCC[C@@]4(C)C(=O)O[C@@H]4O[C@H](CO)[C@@H](O)[C@H](O)[C@H]4O[C@@H]4O[C@H](CO)[C@@H](O)[C@H](O)[C@H]4O)[C@@H]2CC[C@]1(O[C@@H]1O[C@H](CO)[C@@H](O)[C@H](O[C@@H]2O[C@H](CO)[C@@H](O)[C@H](O)[C@H]2O)[C@H]1O[C@@H]1O[C@H](CO)[C@@H](O)[C@H](O)[C@H]1O)C3 [Reb D, rebaudioside D] |
| 0.46% wt % | C=C1C[C@@]23CC[C@H]4[C@@](C)(CCC[C@@]4(C)C(=O)O[C@@H]4O[C@H](CO)[C@@H](O)[C@H](O)[C@H]4O)[C@@H]2CC[C@]1(O[C@@H]1O[C@H](CO)[C@@H](O)[C@H](O[C@@H]2O[C@H](CO)[C@@H](O)[C@H](O)[C@H]2O)[C@H]1O[C@@H]1O[C@H](CO)[C@@H](O)[C@H](O)[C@H]1O)C3 [Reb A, rebaudioside A] |
| 0.80% wt % | C=C1C[C@@]23CC[C@H]4[C@@](C)(CCC[C@@]4(C)C(=O)O[C@@H]4O[C@H](CO)[C@@H](O)[C@H](O)[C@H]4O)[C@@H]2CC[C@]1(O[C@@H]1O[C@H](CO)[C@@H](O)[C@H](O[C@@H]2O[C@H](CO)[C@@H](O)[C@H](O)[C@H]2O)[C@H]1O[C@@H]1O[C@H](CO)[C@@H](O)[C@H](O)[C@H]1O)C3 [Reb A anhydrous, rebaudioside A] |
| 0.44% wt % | C=C1C[C@@]23CC[C@H]4[C@@](C)(CCC[C@@]4(C)C(=O)O[C@@H]4O[C@H](CO)[C@@H](O)[C@H](O)[C@H]4O)[C@@H]2CC[C@]1(O[C@@H]1O[C@H](CO)[C@@H](O)[C@H](O)[C@H]1O[C@@H]1O[C@H](CO)[C@@H](O)[C@H](O)[C@H]1O)C3 [Stevioside, stevioside] |
